Patent US4411898A, “7-[2-Oxyimino-2-(2-aminothiazol-4-yl)acetamido]-3-(1-carboxya lkyl-1H-tetrazol-5-yl)thiomethyl-3-cephem-4-carboxylic acid compounds” (Fujisawa Pharmaceutical Co., Ltd., priority 1977, dated 1983)
≈ marks a conversion by molar mass, not a printed value. Where a name gives a salt, the structure may show the parent alone.

Columns and labels:
Assay in all cases: In vitro antibacterial activity, two-fold agar-plate dilution method
Type in all cases: cell-based
Details in all cases: HI-agar, 37° C., 20 hours, read-out: minimal inhibitory concentration (MIC)
Proteus vulgaris 2 = tested on: Proteus vulgaris 2
Description: (§1) In vitro antibacterial activity was determined by the two-fold agar-plate dilution method as described below.
(§2) One loopful of an overnight culture of each test strain in Trypticase-soy broth (10^8 viable cells per ml.) was streaked on heart infusion agar (HI-agar) containing graded concentrations of test compounds, and minimal inhibitory concentration (MIC) was expressed in terms of μg/ml. after incubation at 37° C. for 20 hours.

[1] = tested on: Staphylococcus aureus 209P JC-1
Description: as §1, §2

Escherichia coli 324 = tested on: Escherichia coli 324
Description: as §1, §2

Klebsiella aerogenes 417 = tested on: Klebsiella aerogenes 417
Description: as §1, §2

Proteus mirabilis 525 = tested on: Proteus mirabilis 525
Description: as §1, §2

CCCON=C(C(=O)NC1C(=O)N2C(C(=O)O)=C(CSc3nnnn3CC(=O)O)CSC12)c1csc(N)n1 (stereo not drawn) [Test Compound (1), 7-[2-n-Propoxyimino-2-(2-amino-1,3-thiazol-4-yl)acetamido]-3-(1-carboxymethyl-1H-tetrazol-5-yl)thiomethyl-3-cephem-4-carboxylic acid (syn isomer)]
MIC (Proteus vulgaris 2): 0.39 µg/mL (≈ 0.668 µM) | MIC [1]: 12.5 µg/mL (≈ 21.4 µM)

C#CCON=C(C(=O)NC1C(=O)N2C(C(=O)O)=C(CSc3nnnn3CC(=O)O)CSC12)c1csc(N)n1 (stereo not drawn) [Test Compound (3), 7-[2-(2-Propynyloxyimino)-2-(2-amino-1,3-thiazol-4-yl)acetamido]-3-(1-carboxymethyl-1H-tetrazol-5-yl)thiomethyl-3-cephem-4-carboxylic acid (syn isomer)]
MIC (Proteus vulgaris 2): 0.025 µg/mL (≈ 0.0431 µM) | MIC [1]: 12.5 µg/mL (≈ 21.6 µM)

C=CCON=C(C(=O)NC1C(=O)N2C(C(=O)O)=C(CSc3nnnn3CC(=O)O)CSC12)c1csc(N)n1 (stereo not drawn) [Test Compound (2), 7-[2-Allyloxyimino-2-(2-amino-1,3-thiazol-4-yl)acetamido]-3-(1-carboxymethyl-1H-tetrazol-5-yl)thiomethyl-3-cephem-4-carboxylic acid hydrochloride (syn isomer)]
MIC (Proteus vulgaris 2): 0.78 µg/mL | MIC [1]: 12.5 µg/mL

CON=C(C(=O)NC1C(=O)N2C(C(=O)O)=C(CSc3nnnn3CC(=O)O)CSC12)c1csnn1 (stereo not drawn) [Test Compound (4), 7-[2-Methoxyimino-2-(1,2,3-thiadiazol-4-yl)acetamido]-3-(1-carboxymethyl-1H-tetrazol-5-yl)thiomethyl-3-cephem-4-carboxylic acid (syn isomer)]
MIC (Escherichia coli 324): 0.2 µg/mL (≈ 0.369 µM) | MIC (Klebsiella aerogenes 417): 0.39 µg/mL (≈ 0.72 µM) | MIC (Proteus mirabilis 525): 0.2 µg/mL (≈ 0.369 µM)
